Measurements: publication PMC8296573, “Synthesis and Biological Evaluation of Fingolimod Derivatives as Antibacterial Agents” (ACS Omega, 2021)
In brackets after ≈: the same amount, converted by molar mass. Where two headings read alike, the source gives them in different places.

What was measured:
S. aureus ATCC 25923 [1] = test: Antibacterial activity, pre-exposure (planktonic cells and biofilm formation); assay type: cell-based, Staphylococcus aureus; conditions: for MIC / inhibition at 5 µM / inhibition at 10 µM / inhibition at 15 µM / inhibition at 25 µM: Staphylococcus aureus, ATCC25923; for inhibition at 5 µM / inhibition at 10 µM / inhibition at 15 µM / inhibition at 25 µM / Average inhibition %, biofilms viability / Average inhibition %, planktonic cells viability: pre-exposure, ± SD
Method in brief: (§1)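 Growth prevention was tested by adding compounds together with the inoculum. Plates were incubated 18 h at 37 °C. Viability was read by resazurin fluorescence and biomass by crystal violet absorbance at 595 nm.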

P. aeruginosa ATCC 9027 = test: Antibacterial activity, pre-exposure; assay type: cell-based, Pseudomonas aeruginosa; conditions: for Average inhibition %, biofilms viability / Average inhibition %, planktonic cells viability / inhibition at 50 µM / inhibition at 100 µM / inhibition at 150 µM / inhibition at 200 µM: P. aeruginosa ATCC 9027, pre-exposure, ± SD; for inhibition at 50 µM / inhibition at 100 µM / inhibition at 150 µM / inhibition at 200 µM: Pseudomonas aeruginosa, ATCC9027
Method in brief: as §1

S. aureus ATCC 25923 [2] = test: Antibacterial activity, post-exposure on preformed 18-h-old biofilms; assay type: cell-based, Staphylococcus aureus; conditions: ± SD; for inhibition at 25 µM / inhibition at 50 µM / inhibition at 100 µM / inhibition at 200 µM: Staphylococcus aureus; for inhibition at 25 µM: ATCC25923, 25 µM; for inhibition at 50 µM: ATCC25923, 50 µM; for inhibition at 100 µM: ATCC25923, 100 µM; for inhibition at 200 µM: ATCC25923, 200 µM
Method in brief: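 Biofilms grown 18 h without compound, medium then replaced and compound added for a further 24 h. Planktonic OD and resazurin (20 μM final) fluorescence (ex 560/em 590 nm) read; washed biofilms stained with 20 μM resazurin 30 min at 37 °C, then ethanol-fixed and crystal violet-stained, absorbance 595 nm.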

A. baumannii NCTC 13423 = test: Antibacterial activity, pre-exposure; assay type: cell-based, Acinetobacter baumannii; conditions: for Average inhibition %, biofilms viability / Average inhibition %, planktonic cells viability / inhibition at 10 µM / inhibition at 15 µM / inhibition at 25 µM / inhibition at 50 µM: A. baumannii NCTC 13423, pre-exposure, ± SD; for inhibition at 10 µM / inhibition at 15 µM / inhibition at 25 µM / inhibition at 50 µM: Acinetobacter baumannii, NCTC13423
Method in brief: as §1

[3] = 10 µM, read-out: Average inhibition %, biofilms biomass
[4] = 10 µM, read-out: Average inhibition %, planktonic cells turbidity
[5] = 15 µM, read-out: Average inhibition %, biofilms biomass
[6] = 15 µM, read-out: Average inhibition %, planktonic cells turbidity
[7] = 25 µM, read-out: Average inhibition %, biofilms biomass
[8] = 25 µM, read-out: Average inhibition %, planktonic cells turbidity
[9] = 50 µM, read-out: Average inhibition %, biofilms biomass
[10] = 50 µM, read-out: Average inhibition %, planktonic cells turbidity
[11] = read-out: Average inhibition %, biofilms biomass
[12] = read-out: Average inhibition %, planktonic cells turbidity

CCCCCCCCCCc1ccc2nc(CCC(N)(CO)CO)ccc2c1 [Compound 81, 2-Amino-2-[2-(6-decylquinolin-2-yl)ethyl]propane-1,3-diol]
MIC (S. aureus ATCC 25923 [1]; lowest concentration with no visible growth (>90% inhibition of turbidity and viability of planktonic cells), 18 h, read-out: MIC S. aureus ATCC 25923): 10 to 15 µM (≈ 3.87 to 5.8 µg/mL)
inhibition at 5 µM (S. aureus ATCC 25923 [1]; 5 µM, read-out: Average inhibition %, biofilms biomass): 28.1 ± 33.9%
inhibition at 5 µM (S. aureus ATCC 25923 [1]; 5 µM, read-out: Average inhibition %, planktonic cells turbidity): 33.4 ± 30.9%
inhibition at 10 µM (S. aureus ATCC 25923 [1]; [3]): 66 ± 27.6%
inhibition at 10 µM (S. aureus ATCC 25923 [1]; [4]): 57.3 ± 36.4%
inhibition at 15 µM (S. aureus ATCC 25923 [1]; [5]): 98.4 ± 0.3%
inhibition at 15 µM (S. aureus ATCC 25923 [1]; [6]): 99.3 ± 0.2%
inhibition at 25 µM (S. aureus ATCC 25923 [1]; [7]): 97.3 ± 0.1%
inhibition at 25 µM (S. aureus ATCC 25923 [1]; [8]): 98.6 ± 0.3%
MIC (S. aureus ATCC 25923 [1]; read-out: MIC (S. aureus)): 10 to 15 µM (≈ 3.87 to 5.8 µg/mL)
Average inhibition %, biofilms viability (S. aureus ATCC 25923 [1]; 5 µM): 28.3 ± 16.5%
Average inhibition %, planktonic cells viability (S. aureus ATCC 25923 [1]; 5 µM): 23.5 ± 26.1%
Average inhibition %, biofilms viability (S. aureus ATCC 25923 [1]; 10 µM): 64 ± 29.7%
Average inhibition %, planktonic cells viability (S. aureus ATCC 25923 [1]; 10 µM): 33.9 ± 57%
Average inhibition %, biofilms viability (S. aureus ATCC 25923 [1]; 15 µM): 99.1 ± 1%
Average inhibition %, planktonic cells viability (S. aureus ATCC 25923 [1]; 15 µM): 99.7 ± 0%
Average inhibition %, biofilms viability (S. aureus ATCC 25923 [1]; 25 µM): 99.1 ± 1.4%
Average inhibition %, planktonic cells viability (S. aureus ATCC 25923 [1]; 25 µM): 99.7 ± 0.1%
Average inhibition %, biofilms viability (P. aeruginosa ATCC 9027; 50 µM): 4.9 ± 5.2%
Average inhibition %, planktonic cells viability (P. aeruginosa ATCC 9027; 50 µM): 10.9 ± 9.5%
Average inhibition %, biofilms viability (P. aeruginosa ATCC 9027; 100 µM): 3.8 ± 4.9%
Average inhibition %, planktonic cells viability (P. aeruginosa ATCC 9027; 100 µM): 20.3 ± 12.9%
Average inhibition %, biofilms viability (P. aeruginosa ATCC 9027; 150 µM): 7.9 ± 11.7%
Average inhibition %, planktonic cells viability (P. aeruginosa ATCC 9027; 150 µM): 16.3 ± 5.7%
Average inhibition %, biofilms viability (P. aeruginosa ATCC 9027; 200 µM): 0.3 ± 0.5%
Average inhibition %, planktonic cells viability (P. aeruginosa ATCC 9027; 200 µM): 17 ± 16.2%
inhibition at 50 µM (P. aeruginosa ATCC 9027; [9]): 3.6 ± 4.6%
inhibition at 50 µM (P. aeruginosa ATCC 9027; [10]): 29.2 ± 5.8%
inhibition at 100 µM (P. aeruginosa ATCC 9027; 100 µM, read-out: Average inhibition %, biofilms biomass): 0%
inhibition at 100 µM (P. aeruginosa ATCC 9027; 100 µM, read-out: Average inhibition %, planktonic cells turbidity): 41.2 ± 11.2%
inhibition at 150 µM (P. aeruginosa ATCC 9027; 150 µM, read-out: Average inhibition %, biofilms biomass): 4 ± 7%
inhibition at 150 µM (P. aeruginosa ATCC 9027; 150 µM, read-out: Average inhibition %, planktonic cells turbidity): 38.2 ± 12.2%
inhibition at 200 µM (P. aeruginosa ATCC 9027; 200 µM, read-out: Average inhibition %, biofilms biomass): 0.7 ± 0.6%
inhibition at 200 µM (P. aeruginosa ATCC 9027; 200 µM, read-out: Average inhibition %, planktonic cells turbidity): 30.5 ± 8.3%
MIC P. aeruginosa ATCC 9027 (P. aeruginosa ATCC 9027; pre-exposure, Inactive = no activity up to 200 μM, > = some inhibition but no MIC reached): Inactive
Average inhibition %, biofilms viability (S. aureus ATCC 25923 [2]; 25 µM): 6.4 ± 8.2%
Average inhibition %, planktonic cells viability (S. aureus ATCC 25923 [2]; 25 µM): 8.8 ± 7.7%
Average inhibition %, biofilms viability (S. aureus ATCC 25923 [2]; 50 µM): 18.3 ± 16.6%
Average inhibition %, planktonic cells viability (S. aureus ATCC 25923 [2]; 50 µM): 6.9 ± 10.4%
Average inhibition %, biofilms viability (S. aureus ATCC 25923 [2]; 100 µM): 20.9 ± 18.1%
Average inhibition %, planktonic cells viability (S. aureus ATCC 25923 [2]; 100 µM): 28.8 ± 17.2%
Average inhibition %, biofilms viability (S. aureus ATCC 25923 [2]; 200 µM): 20.1 ± 16%
Average inhibition %, planktonic cells viability (S. aureus ATCC 25923 [2]; 200 µM): 7.8 ± 11.1%
inhibition at 25 µM (S. aureus ATCC 25923 [2]; [11]): 9.7 ± 8.6%
inhibition at 25 µM (S. aureus ATCC 25923 [2]; [12]): 22.7 ± 32.9%
inhibition at 50 µM (S. aureus ATCC 25923 [2]; [11]): 28.5 ± 12.5%
inhibition at 50 µM (S. aureus ATCC 25923 [2]; [12]): 10 ± 17.4%
inhibition at 100 µM (S. aureus ATCC 25923 [2]; [11]): 34.6 ± 8.2%
inhibition at 100 µM (S. aureus ATCC 25923 [2]; [12]): 19 ± 22.4%
inhibition at 200 µM (S. aureus ATCC 25923 [2]; [11]): 25 ± 11.6%
inhibition at 200 µM (S. aureus ATCC 25923 [2]; [12]): 11.2 ± 16.9%
Average inhibition %, biofilms viability (A. baumannii NCTC 13423; 10 µM): 0 ± 0%
Average inhibition %, planktonic cells viability (A. baumannii NCTC 13423; 10 µM): 7.5 ± 7.6%
Average inhibition %, biofilms viability (A. baumannii NCTC 13423; 15 µM): 0 ± 0%
Average inhibition %, planktonic cells viability (A. baumannii NCTC 13423; 15 µM): 5.8 ± 6.2%
Average inhibition %, biofilms viability (A. baumannii NCTC 13423; 25 µM): 0 ± 0%
Average inhibition %, planktonic cells viability (A. baumannii NCTC 13423; 25 µM): 2.6 ± 2.1%
Average inhibition %, biofilms viability (A. baumannii NCTC 13423; 50 µM): 0.8 ± 1.4%
Average inhibition %, planktonic cells viability (A. baumannii NCTC 13423; 50 µM): 2.6 ± 3.8%
inhibition at 10 µM (A. baumannii NCTC 13423; [3]): 0%
inhibition at 10 µM (A. baumannii NCTC 13423; [4]): 0.2 ± 0.5%
inhibition at 15 µM (A. baumannii NCTC 13423; [5]): 2.1 ± 3.6%
inhibition at 15 µM (A. baumannii NCTC 13423; [6]): 0%
inhibition at 25 µM (A. baumannii NCTC 13423; [7]): 3.6 ± 6.2%
inhibition at 25 µM (A. baumannii NCTC 13423; [8]): 0%
inhibition at 50 µM (A. baumannii NCTC 13423; [9]): 5.6 ± 5.9%
inhibition at 50 µM (A. baumannii NCTC 13423; [10]): 0.5 ± 0.9%
MIC A. baumannii NCTC 13423 (A. baumannii NCTC 13423; pre-exposure, Inactive = no activity up to 50 μM, > = some inhibition but no MIC reached): Inactive
